Data set [1] is described as follows: Stability of NTI164 in oil at room temperature (UPLC, weekly assay, CBDA as marker).
The subject of a further data set is neurons. Description: Cell death in an excitotoxic cell injury paradigm. It is filed as cell-based. Conditions: excitotoxic cell injury paradigm (glutamate 3 mM); 2 μg/ml. The method, then:
Neuronal viability was quantified using MTT [3-(4,5-dimethylthiazol-2-yl-)-2,5-diphenyl-2H-tetrazolium bromide; Sigma]. […] Cellular excitotoxicity was achieved via glutamate activation (3 mM).

Another data set relates to COX-2. Briefly: COX-2 immunohistochemistry (protein level) assay in microglial cells. The class given is cell-based, human. Conditions: 2 μg/ml, N=9. The method, then:
Immunohistochemistry (Protein Level) Assay: Cells were fixed for 10 min with 4% paraformaldehyde (PFA) in PBS. After 3×5 minutes washing with PBS, cells were incubated with primary antibodies (anti-COX2) 1:1000 overnight at 4° C., and after 3×5 minutes washing in PBS, cells were then incubated in appropriate fluorescent secondary antibody 1:250 (Invitrogen) for 2 hours at room temperature. After a final wash, as previous, cells nuclei were sained with DAPI in the mounting media. Photomicrographs were taken of the cells in three fields of view per well from duplicate wells and analysed using Fiji for area coverage of each marker.
(§1) The tubes are then placed in a sonication bath for 10 mins at 35-40 C. Upon completion of the sonication samples are then placed in a tray shaker (200 rpm) for 30 minutes at room temperature. Once completed the samples are then centrifuged at 4400 rpm for 5 minutes. The supernatant is collected for testing and development.
(§2) For the CBD sample, a pure standard (in powder form) was used. CBD 98% isolate was purchased as a reference standard from LGC Standards (London UK) (CAS No. 13956-29-1). The CBD standard reference was prepared at concentration of 1 mg/ml (in acetonitrile). CBD dilutions were made in acetonitrile as follows: 2 μg/ml; 6 μg/ml; and 0.1 μg/ml.

Another data set has as its system IL-12. Briefly: Multiplex cytokine/chemokine assay, IL-12. It is filed as cell-based, human. Conditions: 2 μg/ml; Interleukin and Interferon activation; control 99.91. The method, then: (§3) Multiplex Cytokine/Chemokine Assay: Microglia media harvested following treatment initiation was centrifuged briefly to remove particulates (300 g for 10 min). Cytokine and chemokine levels in the microglial media were measured using a Bio-Plex 200 with a 96-well magnetic plate assay according to the manufacturer's instructions (Bio-Rad). Cytokines and chemokines measured included IL-1α, IL-1β, IL-2, IL-6, IL-10, IL-12 (p70), IL-13, G-CSF, GM-CSF, IFNγ, TNFα, CXCL1 (KC), CCL2 (MCP-1), and CCL5 (RANTES). All samples were run in duplicate and data were analyzed with the Bio-Plex Manager software.
as §1, §2

The subject of the next data set is TNF-alpha. Briefly: Multiplex cytokine/chemokine assay, TNF-alpha. The class given is cell-based, human. Conditions: 2 μg/ml; Interleukin and Interferon activation. The method, then: as §3, §1, §2

Eleven compounds from patent US20260077009A1, “COMPOSITIONS AND METHODS FOR TREATING NEUROLOGICAL DISORDERS” (Neurotech International Ltd, priority 2021, published 2026) can be followed below.

SMILES strings stand for the structures. Some results are limits rather than exact numbers.

On to `CCCCCc1cc2c(c(O)c1C(=O)O)[C@@H]1C=C(C)CC[C@H]1C(C)(C)O2` [(Tetrahydrocannabinolic acid) (D9-THCA), Tetrahydrocannabinolic acid], for which the “Cannabinoid concentration in NTI164 (sample 28206-7)” value (shortened to “Cannabinoid concentration in NTI164”) in data set [1] (Day 0 (13 Jul. 2021)) is on record as 0.66 mg/mL; in data set [1] (Day 2 (15 Jul. 2021)) it was 0.72 mg/mL; in data set [1] (Day 7 (20 Jul. 2021)), 0.64 mg/mL; in data set [1] (Day 14 (29 Jul. 2021)), 0.69 mg/mL; in data set [1] (Day 28 (12 Aug. 2021)) it was 0.36 mg/mL; in data set [1] (Week 5 (19 Aug. 2021)), 0.79 mg/mL. Further, the “Cannabinoid concentration in NTI164” value is 0.73 mg/mL in data set [1] (Week 6 (27 Aug. 2021)) and under 0.1 mg/mL in data set [1] (Week 32 (12 Sep. 2022)).

Take `C=C(C)[C@@H]1CCC(C)=C[C@H]1c1c(O)cc(CCCCC)cc1O` [CBD, Cannabidiol, reference compound]: in the data set with neurons, the “Cell death / toxicity” value is “toxic”. Besides, the “COX-2 expression, Avg +/- SEM” value in the data set with COX-2 (exposure 1 hour after inflammatory insult (Interleukin and Interferon gamma), positive control 104.26) is on record as 76.32 +/− 7.95 (SEM); in the data set on COX-2 (exposure 1 hour prior to inflammatory insult (Interleukin and Interferon gamma), positive control 94.47) it was 84.82 +/− 7.65 (SEM). Also, in the data set with IL-12, the “IL-12, Average +/- Standard Deviation (SD)” value was 84.40 +/− 6.54. For the same compound, in the data set on TNF-alpha, the “TNF-alpha, Average +/- Standard Deviation (SD)” value is on record as 71.13 +/− 12.81. Moreover, the “Cannabinoid concentration in NTI164” value in data set [1] (Day 0 (13 Jul. 2021)) was 0.46 mg/mL; in data set [1] (Day 2 (15 Jul. 2021)), 0.56 mg/mL; in data set [1] (Day 7 (20 Jul. 2021)), 0.53 mg/mL; in data set [1] (Day 14 (29 Jul. 2021)) it was 0.56 mg/mL; in data set [1] (Day 28 (12 Aug. 2021)), 0.54 mg/mL; in data set [1] (Week 5 (19 Aug. 2021)) it was 0.60 mg/mL. The “Cannabinoid concentration in NTI164” value is 0.51 mg/mL in data set [1] (Week 6 (27 Aug. 2021)) and 0.48 mg/mL in data set [1] (Week 32 (12 Sep. 2022)).

As for `CCCCCc1cc(O)c2c(c1)OC(C)(CCC=C(C)C)C=C2` (stereo not drawn) [Cannabichrome (CBC), Cannabichrome], the “Cannabinoid concentration in NTI164” value is reported as 1.23 mg/mL in data set [1] (Day 0 (13 Jul. 2021)); 1.19 mg/mL in data set [1] (Day 2 (15 Jul. 2021)); 1.34 mg/mL in data set [1] (Day 7 (20 Jul. 2021)); 1.22 mg/mL in data set [1] (Day 14 (29 Jul. 2021)); 1.27 mg/mL in data set [1] (Day 28 (12 Aug. 2021)); 1.20 mg/mL in data set [1] (Week 5 (19 Aug. 2021)). Moreover, the “Cannabinoid concentration in NTI164” value in data set [1] (Week 6 (27 Aug. 2021)) came to 1.15 mg/mL; in data set [1] (Week 32 (12 Sep. 2022)), 1.22 mg/mL.

`C=C(C)[C@@H]1CCC(C)=C[C@H]1c1c(O)cc(CCCCC)c(C(=O)O)c1O` [Cannabidiol acid (CBD-A), Cannabidiol acid]: the “Cannabinoid concentration in NTI164” value in data set [1] (Day 0 (13 Jul. 2021)) was found to be 48.16 mg/mL; in data set [1] (Day 2 (15 Jul. 2021)) it was 48.19 mg/mL; in data set [1] (Day 7 (20 Jul. 2021)), 48.62 mg/mL; in data set [1] (Day 14 (29 Jul. 2021)), 48.09 mg/mL; in data set [1] (Day 28 (12 Aug. 2021)), 47.12 mg/mL; in data set [1] (Week 5 (19 Aug. 2021)), 48.35 mg/mL. Also, the “Cannabinoid concentration in NTI164” value is reported as 47.56 mg/mL in data set [1] (Week 6 (27 Aug. 2021)) and 47.01 mg/mL in data set [1] (Week 32 (12 Sep. 2022)).

As to `C=C(C)[C@@H]1CCC(C)=C[C@H]1c1c(O)cc(CCC)cc1O` [Cannabidivarin (CBDV), Cannabidivarin], the “Cannabinoid concentration in NTI164” value is on record as under 0.1 mg/mL in data set [1] (Day 0 (13 Jul. 2021)); under 0.1 mg/mL in data set [1] (Day 2 (15 Jul. 2021)); under 0.1 mg/mL in data set [1] (Day 7 (20 Jul. 2021)); under 0.1 mg/mL in data set [1] (Day 14 (29 Jul. 2021)); under 0.1 mg/mL in data set [1] (Day 28 (12 Aug. 2021)); 0.10 mg/mL in data set [1] (Week 5 (19 Aug. 2021)). Further, the “Cannabinoid concentration in NTI164” value in data set [1] (Week 6 (27 Aug. 2021)) is given as under 0.1 mg/mL; in data set [1] (Week 32 (12 Sep. 2022)) it was 0.13 mg/mL.

For the compound `CCCCCc1cc(O)c(C/C=C(\C)CCC=C(C)C)c(O)c1` [Cannabigerol (CBG), Cannabigerol], the “Cannabinoid concentration in NTI164” value in data set [1] (Day 0 (13 Jul. 2021)) stood at 5.21 mg/mL; in data set [1] (Day 2 (15 Jul. 2021)), 5.23 mg/mL; in data set [1] (Day 7 (20 Jul. 2021)), 5.14 mg/mL; in data set [1] (Day 14 (29 Jul. 2021)), 5.1 mg/mL; in data set [1] (Day 28 (12 Aug. 2021)), 5.1 mg/mL; in data set [1] (Week 5 (19 Aug. 2021)), 5.30 mg/mL. Further, the “Cannabinoid concentration in NTI164” value stood at 5.28 mg/mL in data set [1] (Week 6 (27 Aug. 2021)) and 5.12 mg/mL in data set [1] (Week 32 (12 Sep. 2022)).

For the compound `CCCCCc1cc(O)c(C/C=C(\C)CCC=C(C)C)c(O)c1C(=O)O` [Cannabigerol Acid(CBG-A), Cannabigerol Acid], the “Cannabinoid concentration in NTI164” value amounted to 1.07 mg/mL in data set [1] (Day 0 (13 Jul. 2021)); 1.18 mg/mL in data set [1] (Day 2 (15 Jul. 2021)); 1.20 mg/mL in data set [1] (Day 7 (20 Jul. 2021)); 1.19 mg/mL in data set [1] (Day 14 (29 Jul. 2021)); 0.81 mg/mL in data set [1] (Day 28 (12 Aug. 2021)); 1.08 mg/mL in data set [1] (Week 5 (19 Aug. 2021)). The entries for the “Cannabinoid concentration in NTI164” value in data set [1] (Week 6 (27 Aug. 2021)) and in data set [1] (Week 32 (12 Sep. 2022)) were 1.00 mg/mL and 1.05 mg/mL, respectively.

On to `CCCCCc1cc(O)c2c(c1)OC(C)(C)c1ccc(C)cc1-2` [Cannabinol (CBN), Cannabinol], for which the “Cannabinoid concentration in NTI164” value in data set [1] (Day 0 (13 Jul. 2021)) came out at 2.32 mg/mL; in data set [1] (Day 2 (15 Jul. 2021)) it was 2.54 mg/mL; in data set [1] (Day 7 (20 Jul. 2021)), 2.48 mg/mL; in data set [1] (Day 14 (29 Jul. 2021)) it was 2.33 mg/mL; in data set [1] (Day 28 (12 Aug. 2021)), 2.56 mg/mL; in data set [1] (Week 5 (19 Aug. 2021)) it was 2.22 mg/mL. The “Cannabinoid concentration in NTI164” value in data set [1] (Week 6 (27 Aug. 2021)) is given as 2.27 mg/mL; in data set [1] (Week 32 (12 Sep. 2022)), 2.21 mg/mL.

As for `CCCCCc1cc(O)c2c(c1)OC(C)(C)[C@@H]1CC=C(C)C[C@@H]21` [DELTA-8-THC (D8-THC), DELTA-8-THC], the “Cannabinoid concentration in NTI164” value in data set [1] (Day 0 (13 Jul. 2021)), in data set [1] (Day 2 (15 Jul. 2021)), in data set [1] (Day 7 (20 Jul. 2021)), in data set [1] (Day 14 (29 Jul. 2021)), in data set [1] (Day 28 (12 Aug. 2021)) and in data set [1] (Week 5 (19 Aug. 2021)) was under 0.1 mg/mL each time. For the same compound, the “Cannabinoid concentration in NTI164” value in data set [1] (Week 6 (27 Aug. 2021)) and in data set [1] (Week 32 (12 Sep. 2022)) was under 0.1 mg/mL in each case.

On to `CCCCCc1cc(O)c2c(c1)OC(C)(C)[C@@H]1CCC(C)=C[C@@H]21` [Tetrahydrocannabinol (D9-THC), Tetrahydrocannabinol], for which the “Cannabinoid concentration in NTI164” value is recorded as under 0.1 mg/mL in data set [1] (Day 0 (13 Jul. 2021)); under 0.1 mg/mL in data set [1] (Day 2 (15 Jul. 2021)); under 0.1 mg/mL in data set [1] (Day 7 (20 Jul. 2021)); under 0.1 mg/mL in data set [1] (Day 14 (29 Jul. 2021)); under 0.1 mg/mL in data set [1] (Day 28 (12 Aug. 2021)); 0.14 mg/mL in data set [1] (Week 5 (19 Aug. 2021)). The “Cannabinoid concentration in NTI164” value in data set [1] (Week 6 (27 Aug. 2021)) is given as under 0.1 mg/mL; in data set [1] (Week 32 (12 Sep. 2022)) it was 0.11 mg/mL.

As to `CCCc1cc(O)c2c(c1)OC(C)(C)[C@@H]1CCC(C)=C[C@@H]21` [Tetrahydrocannabivarin (THCV), Tetrahydrocannabivarin], the “Cannabinoid concentration in NTI164” value in data set [1] (Day 0 (13 Jul. 2021)), in data set [1] (Day 2 (15 Jul. 2021)), in data set [1] (Day 7 (20 Jul. 2021)), in data set [1] (Day 14 (29 Jul. 2021)), in data set [1] (Day 28 (12 Aug. 2021)) and in data set [1] (Week 5 (19 Aug. 2021)) was under 0.1 mg/mL throughout. For the same compound, the “Cannabinoid concentration in NTI164” value in data set [1] (Week 6 (27 Aug. 2021)) and in data set [1] (Week 32 (12 Sep. 2022)) was under 0.1 mg/mL each time.
